Oligonucleotides are written 5' to 3', each unit as a sugar letter and its base; * is a phosphorothioate linkage, no mark a phosphodiester; rarer units and linkages stand in square brackets, end groups in braces. Plain capitals give the bases only. d = 2'-deoxy (DNA); r = 2'-OH (RNA)
Target: P2rx2 (rat)
Assay: reporter assay of Huesken 2005
Details: siRNA
Further: test concentration or dose not given here.

Compared with “sense rCrArCrCrArCrUrCrGrArArCrUrCrUrCrArUrCdTdT / antisense rGrArUrGrArGrArGrUrUrCrGrArGrUrGrGrUrGdGdT”, “sense rArCrUrCrCrCrArGrGrArUrCrArGrCrCrArCrCdTdT / antisense rGrGrUrGrGrCrUrGrArUrCrCrUrGrGrGrArGrUdAdG” is lower in normalised inhibition (eCFP-eYFP dual reporter): 64.7% for the first, 44.7% for the second.

Going from “sense rCrGrUrGrCrArGrArArArArGrCrUrArCrCrArGdTdT / antisense rCrUrGrGrUrArGrCrUrUrUrUrCrUrGrCrArCrGdAdT” to “sense rGrGrGrArUrUrCrGrCrArCrArGrGrGrCrArCrUdTdT / antisense rArGrUrGrCrCrCrUrGrUrGrCrGrArArUrCrCrCdAdT”, the normalised inhibition (eCFP-eYFP dual reporter) falls from 80.5% to 66%.

Going from “sense rArCrUrUrCrUrGrArCrArArCrCrArUrUrUrUrCdTdT / antisense rGrArArArArUrGrGrUrUrGrUrCrArGrArArGrUdTdC” to “sense rGrCrArUrCrArUrCrArCrCrArGrGrArUrCrGrAdTdT / antisense rUrCrGrArUrCrCrUrGrGrUrGrArUrGrArUrGrCdTdG”, the normalised inhibition (eCFP-eYFP dual reporter) rises from 33.5% to 78.5%.

Compared with “sense rCrUrCrUrGrArCrUrGrArGrCrArGrGrUrGrGrUdTdT / antisense rArCrCrArCrCrUrGrCrUrCrArGrUrCrArGrArGdCdA”, “sense rUrArCrCrUrCrArArGrCrArUrUrGrCrArCrArUdTdT / antisense rArUrGrUrGrCrArArUrGrCrUrUrGrArGrGrUrAdGdT” is higher in normalised inhibition (eCFP-eYFP dual reporter): 46.8% for the first, 72.3% for the second.

“sense rGrGrCrArGrGrGrArArArUrUrCrArGrUrCrUrCdTdT / antisense rGrArGrArCrUrGrArArUrUrUrCrCrCrUrGrCrCdTdG” was tested, and the normalised inhibition (eCFP-eYFP dual reporter) was 51.5%.

Target: UBE2T
Assay: reporter assay of Huesken 2005
Details: siRNA

Compared with “sense rArGrCrUrGrCrUrCrArUrGrUrCrArGrArArCrCdTdT / antisense rGrGrUrUrCrUrGrArCrArUrGrArGrCrArGrCrUdGdA”, “sense rCrCrUrGrCrGrArGrCrUrCrArArArUrArUrUrAdTdT / antisense rUrArArUrArUrUrUrGrArGrCrUrCrGrCrArGrGdTdC” is higher in normalised inhibition (eCFP-eYFP dual reporter): 79.4% for the first, 102% for the second.

Going from “sense rArGrUrArGrGrCrArUrArGrArArArArGrArArAdTdT / antisense rUrUrUrCrUrUrUrUrCrUrArUrGrCrCrUrArCrUdAdG” to “sense rArGrGrUrGrCrUrUrGrGrArGrArCrCrArUrCrCdTdT / antisense rGrGrArUrGrGrUrCrUrCrCrArArGrCrArCrCrUdTdT”, the normalised inhibition (eCFP-eYFP dual reporter) falls from 102% to 65.6%.

Going from “sense rCrUrGrCrUrCrArUrGrUrCrArGrArArCrCrCrAdTdT / antisense rUrGrGrGrUrUrCrUrGrArCrArUrGrArGrCrArGdCdT” to “sense rGrArUrGrArGrGrArArGrArGrArUrGrCrUrUrGdTdT / antisense rCrArArGrCrArUrCrUrCrUrUrCrCrUrCrArUrCdAdG”, the normalised inhibition (eCFP-eYFP dual reporter) falls from 104% to 95.1%.

Going from “sense rArUrUrGrCrCrArCrCrArArArArGrGrUrGrCrUdTdT / antisense rArGrCrArCrCrUrUrUrUrGrGrUrGrGrCrArArUdTdT” to “sense rGrGrUrGrCrUrUrGrGrArGrArCrCrArUrCrCrCdTdT / antisense rGrGrGrArUrGrGrUrCrUrCrCrArArGrCrArCrCdTdT”, the normalised inhibition (eCFP-eYFP dual reporter) rises from 43.8% to 80.4%.

First: sense rUrGrUrUrGrGrCrArArGrArUrArArArGrArCrCdTdT / antisense rGrGrUrCrUrUrUrArUrCrUrUrGrCrCrArArCrAdTdG
Second: sense rGrArCrCrUrGrCrGrArGrCrUrCrArArArUrArUdTdT / antisense rArUrArUrUrUrGrArGrCrUrCrGrCrArGrGrUrCdAdT
The normalised inhibition (eCFP-eYFP dual reporter) of the first is lower: 75.8% for the first, 101% for the second.

Compared with “sense rUrUrGrArCrCrUrCrUrArUrUrCrArGrCrUrGrCdTdT / antisense rGrCrArGrCrUrGrArArUrArGrArGrGrUrCrArAdCdA”, “sense rCrCrUrGrArGrArGrGrUrArCrCrCrArUrUrUrGdTdT / antisense rCrArArArUrGrGrGrUrArCrCrUrCrUrCrArGrGdAdA” is higher in normalised inhibition (eCFP-eYFP dual reporter): 49.2% for the first, 78.5% for the second.

Going from “sense rArCrArCrArCrCrUrUrArUrGrArGrArArArGrGdTdT / antisense rCrCrUrUrUrCrUrCrArUrArArGrGrUrGrUrGrUdTdG” to “sense rUrUrArArGrCrUrArGrArArGrUrUrArUrCrArUdTdT / antisense rArUrGrArUrArArCrUrUrCrUrArGrCrUrUrArAdAdA”, the normalised inhibition (eCFP-eYFP dual reporter) rises from 74.7% to 89.9%.

First: sense rCrCrArArUrUrUrArUrCrArUrCrCrArArArCrAdTdT / antisense rUrGrUrUrUrGrGrArUrGrArUrArArArUrUrGrGdAdG
Second: sense rGrUrGrArCrUrCrCrArGrArGrUrArCrArCrArAdTdT / antisense rUrUrGrUrGrUrArCrUrCrUrGrGrArGrUrCrArCdCdA
The normalised inhibition (eCFP-eYFP dual reporter) of the first is lower: 101% for the first, 108% for the second.

Compared with “sense rArArGrUrUrArUrCrArUrUrCrCrUrGrArGrArGdTdT / antisense rCrUrCrUrCrArGrGrArArUrGrArUrArArCrUrUdCdT”, “sense rCrGrArUrUrUrCrUrCrArCrUrCrCrArArUrUrUdTdT / antisense rArArArUrUrGrGrArGrUrGrArGrArArArUrCrGdGdA” is higher in normalised inhibition (eCFP-eYFP dual reporter): 79.4% for the first, 107% for the second.

Compared with “sense rCrUrCrArGrArArUrUrUrArArArUrArUrArArUdTdT / antisense rArUrUrArUrArUrUrUrArArArUrUrCrUrGrArGdGdA”, “sense rArArGrGrUrGrCrUrUrGrGrArGrArCrCrArUrCdTdT / antisense rGrArUrGrGrUrCrUrCrCrArArGrCrArCrCrUrUdTdT” is lower in normalised inhibition (eCFP-eYFP dual reporter): 85.9% for the first, 60.5% for the second.

Compared with “sense rUrCrCrGrArUrUrUrCrUrCrArCrUrCrCrArArUdTdT / antisense rArUrUrGrGrArGrUrGrArGrArArArUrCrGrGrAdTdC”, “sense rCrArUrCrGrCrArArCrUrGrUrGrUrUrGrArCrCdTdT / antisense rGrGrUrCrArArCrArCrArGrUrUrGrCrGrArUrGdTdT” is lower in normalised inhibition (eCFP-eYFP dual reporter): 109% for the first, 84.8% for the second.

Compared with “sense rUrArUrCrArUrCrCrArArArCrArUrUrGrArUrUdTdT / antisense rArArUrCrArArUrGrUrUrUrGrGrArUrGrArUrAdAdA”, “sense rUrCrUrGrCrUrGrGrArArGrGrArUrUrUrGrUrCdTdT / antisense rGrArCrArArArUrCrCrUrUrCrCrArGrCrArGrAdAdT” is higher in normalised inhibition (eCFP-eYFP dual reporter): 67.4% for the first, 87.8% for the second.

First: sense rArArUrGrCrCrArGrArCrArGrUrGrGrArCrArGdTdT / antisense rCrUrGrUrCrCrArCrUrGrUrCrUrGrGrCrArUrUdCdT
Second: sense rUrGrArUrUrCrUrGrCrUrGrGrArArGrGrArUrUdTdT / antisense rArArUrCrCrUrUrCrCrArGrCrArGrArArUrCrAdAdT
The normalised inhibition (eCFP-eYFP dual reporter) of the first is lower: 77.5% for the first, 95.4% for the second.

Going from “sense rUrGrArUrGrArCrCrCrGrCrUrCrArUrGrGrCrUdTdT / antisense rArGrCrCrArUrGrArGrCrGrGrGrUrCrArUrCrAdGdG” to “sense rUrCrUrGrGrArUrGrUrUrCrUrCrArArArUrUrGdTdT / antisense rCrArArUrUrUrGrArGrArArCrArUrCrCrArGrAdCdA”, the normalised inhibition (eCFP-eYFP dual reporter) rises from 75.6% to 80.8%.

Going from “sense rArArGrGrArUrUrUrGrUrCrUrGrGrArUrGrUrUdTdT / antisense rArArCrArUrCrCrArGrArCrArArArUrCrCrUrUdCdC” to “sense rArArGrArGrArUrGrCrUrUrGrArUrArArUrCrUdTdT / antisense rArGrArUrUrArUrCrArArGrCrArUrCrUrCrUrUdCdC”, the normalised inhibition (eCFP-eYFP dual reporter) rises from 79.9% to 99.4%.

Going from “sense rCrArGrGrCrArUrCrArCrArUrGrUrUrGrGrCrAdTdT / antisense rUrGrCrCrArArCrArUrGrUrGrArUrGrCrCrUrGdGdG” to “sense rUrCrUrArCrCrArGrArGrGrCrUrGrGrUrGrArCdTdT / antisense rGrUrCrArCrCrArGrCrCrUrCrUrGrGrUrArGrAdTdT”, the normalised inhibition (eCFP-eYFP dual reporter) falls from 90.8% to 63.5%.

Compared with “sense rCrCrUrGrArUrGrArCrCrCrGrCrUrCrArUrGrGdTdT / antisense rCrCrArUrGrArGrCrGrGrGrUrCrArUrCrArGrGdGdT”, “sense rCrCrCrUrGrArUrGrArCrCrCrGrCrUrCrArUrGdTdT / antisense rCrArUrGrArGrCrGrGrGrUrCrArUrCrArGrGrGdTdT” is higher in normalised inhibition (eCFP-eYFP dual reporter): 83.5% for the first, 91.2% for the second.

First: sense rGrCrGrArGrCrUrCrArArArUrArUrUrArGrGrUdTdT / antisense rArCrCrUrArArUrArUrUrUrGrArGrCrUrCrGrCdAdG
Second: sense rGrGrArArGrGrArUrUrUrGrUrCrUrGrGrArUrGdTdT / antisense rCrArUrCrCrArGrArCrArArArUrCrCrUrUrCrCdAdG
The normalised inhibition (eCFP-eYFP dual reporter) of the first is lower: 71.6% for the first, 96.1% for the second.

Compared with “sense rGrCrArArCrUrGrUrGrUrUrGrArCrCrUrCrUrAdTdT / antisense rUrArGrArGrGrUrCrArArCrArCrArGrUrUrGrCdGdA”, “sense rUrGrArGrGrArArGrArGrArUrGrCrUrUrGrArUdTdT / antisense rArUrCrArArGrCrArUrCrUrCrUrUrCrCrUrCrAdTdC” is lower in normalised inhibition (eCFP-eYFP dual reporter): 114% for the first, 91.6% for the second.

Going from “sense rUrUrGrArArCrCrUrCrCrUrCrArGrArUrCrCrGdTdT / antisense rCrGrGrArUrCrUrGrArGrGrArGrGrUrUrCrArAdAdT” to “sense rUrGrGrArUrGrUrUrCrUrCrArArArUrUrGrCrCdTdT / antisense rGrGrCrArArUrUrUrGrArGrArArCrArUrCrCrAdGdA”, the normalised inhibition (eCFP-eYFP dual reporter) rises from 56.5% to 71.9%.

First: sense rGrUrUrArUrCrArUrUrCrCrUrGrArGrArGrGrUdTdT / antisense rArCrCrUrCrUrCrArGrGrArArUrGrArUrArArCdTdT
Second: sense rUrGrArGrArGrGrUrArCrCrCrArUrUrUrGrArAdTdT / antisense rUrUrCrArArArUrGrGrGrUrArCrCrUrCrUrCrAdGdG
The normalised inhibition (eCFP-eYFP dual reporter) of the first is lower: 75.4% for the first, 87.4% for the second.

For “sense rUrCrArArCrArCrArGrArArArArGrGrArArGrGdTdT / antisense rCrCrUrUrCrCrUrUrUrUrCrUrGrUrGrUrUrGrAdGdT”, the normalised inhibition (eCFP-eYFP dual reporter) was 65.5%.

Reference: the OligoGym collection
